In patent publication US20220146526A1, “METHOD FOR EVALUATING SAMPLE, ANALYSIS METHOD, METHOD FOR DETECTING DEGRADED SAMPLE, MARKER FOR DETECTING DEGRADED BLOOD PLASMA SAMPLE, AND MARKER FOR DETECTING DEGRADED SERUM SAMPLE” (SHIMADZU CORPORATION, priority 2019, published 2022):

Tests used:
Format in all cases: physicochemical, human
[1] = GC/MS of blood plasma sample: time from blood collection to centrifugation (Table A); details: for Increase or decrease: detection intensity, after 4 hours vs 15 minutes; for Increase or decrease / Rate of increase or decrease: blood collection to centrifugation; for Rate of increase or decrease: detection intensity relative to 1 at 15 minutes
How it was run: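 EDTA blood from a healthy subject was cooled at 4° C, centrifuged at 4° C, 3000 rpm, 15 minutes, and plasma was frozen. After methoxymation and trimethylsilylation, samples ran on GC/MS (BPX5 column, 60-330° C gradient, electron ionization, MRM). Intensity is relative to 15 minutes from collection to centrifugation.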

[2] = GC/MS of blood plasma sample: time from blood collection to cooling of blood (Table B); set-up: key to Rate of increase or decrease / Rate of increase or decrease (first value, increase): detection intensity relative to 1 at cooling time ≤1 min; details: for Rate of increase or decrease: detection intensity relative to 1 at 1 minute or less, blood collection to cooling 5 minutes; for Increase or decrease: detection intensity, blood collection to cooling 5 minutes or more vs 1 minute or less
How it was run: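 Blood drawn at room temperature into EDTA tubes, mixed, then cooled at 4° C. within 1 minute or less versus 5 minutes or more before centrifugation (4° C., 3000 rpm, 15 minutes). Plasma was frozen, methoxymated and trimethylsilylated, and analysed by EI GC/MS in MRM mode. Values are detection intensity relative to the ≤1 minute condition.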

[3] = GC/MS of blood plasma sample: number of times of freezing and thawing (Table C); details: for Increase or decrease: detection intensity; for Rate of increase or decrease: detection intensity relative to 1 at 2 times
How it was run: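 EDTA plasma from a healthy subject, cooled within 1 min or after 5+ min, centrifuged 4 °C/3000 rpm/15 min, frozen, then freeze-thawed 2, 4, 6 or 10 times. Methoximated, trimethylsilylated samples run by GC/MS (BPX5 column, EI, MRM). Values are detection intensity relative to 2 freeze-thaw cycles set as 1.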

[4] = LC/MS of blood plasma sample: time from blood collection to centrifugation (Table D); details: for Rate of increase or decrease: detection intensity relative to 1 at 15 minutes; for Rate of increase or decrease / Increase or decrease: blood collection to centrifugation; for Increase or decrease: detection intensity
How it was run: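 Healthy-subject blood (5 mL, EDTA) cooled and held at 4 °C before centrifugation (4 °C, 3000 rpm, 15 min), with plasma then frozen. LC/MS on Discovery HS F5-3 column at 40 °C, 0.1% formic acid water/acetonitrile, 0.25 mL/min, electrospray, MRM; intensities relative to 15 min collection-to-centrifugation set as 1.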

[5] = GC/MS of serum sample: time from blood collection to centrifugation (Table G); details: for Increase or decrease: detection intensity, after 4 hours vs 15 minutes; for Increase or decrease / Rate of increase or decrease: blood collection to centrifugation; for Rate of increase or decrease: detection intensity relative to 1 at 15 minutes
How it was run: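 Blood was held for varying times before centrifugation (room temperature, 3500 rpm, 5 min); serum was frozen, then methoxymated and trimethylsilylated for GC/MS with electron ionization in MRM mode. Values are detection intensities relative to the 15-minute collection-to-centrifugation condition, set as 1.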

[6] = different from individual to individual, individuals with decrease, relative to 1 at 15 minutes, collection to centrifugation, after 4 hours
[7] = different from individual to individual, individuals with increase, relative to 1 at 15 minutes, collection to centrifugation, after 4 hours

Row | Structure (SMILES) | Increase or decrease [1] | Rate of increase or decrease [2] | Increase or decrease [2] | Increase or decrease ([4]; after 6 hours vs 15 minutes) | Rate of increase or decrease ([1]; after 4 hours) | Increase or decrease [5] | Increase or decrease ([4]; after 4 hours vs 15 minutes) | Rate of increase or decrease ([5]; after 4 hours) | also measured
1 | O=c1[nH]c(=O)c2[nH]cnc2[nH]1 [Xanthine] | Different from individual | 0.45 | Decrease | Increase | – | – | – | – | Rate of increase or decrease (second value, decrease) [1, 6]: 0.49; Rate of increase or decrease (first value, increase) [1, 7]: 1.83; Increase or decrease ([3]; freezing and thawing 6 times vs 2 times): Different from individual; Rate of increase or decrease (second value, decrease) ([3]; different from individual to individual, individuals with decrease, relative to 1 at 2 times, freezing and thawing 6 times): 0.51; Rate of increase or decrease (first value, increase) ([3]; different from individual to individual, individuals with increase, relative to 1 at 2 times, freezing and thawing 6 times): 2.21; Rate of increase or decrease ([4]; after 6 hours): 1.39
2 | CC(C)(CO)[C@@H](O)C(=O)NCCC(=O)O [Pantothenic acid] | Increase | 3.56 | Increase | Increase | 3.15 | Different from individual | – | – | Rate of increase or decrease ([3]; freezing and thawing 4 times): 3.07; Increase or decrease ([3]; freezing and thawing 4 times vs 2 times): Increase; Rate of increase or decrease (second value, decrease) [5, 6]: 0.51; Rate of increase or decrease (first value, increase) [5, 7]: 1.78
3 | NC(=O)NC1NC(=O)NC1=O (stereo not drawn) [Allantoin] | Decrease | – | Different from individual | – | 0.18 | Increase | Decrease | 1.67 | Rate of increase or decrease (second value, decrease) ([2]; different from individual to individual, individuals with decrease, relative to 1 at 1 minute or less, collection to cooling 5 minutes): 0.57; Rate of increase or decrease (first value, increase) ([2]; different from individual to individual, individuals with increase, relative to 1 at 1 minute or less, collection to cooling 5 minutes): 1.30; Rate of increase or decrease ([3]; freezing and thawing 10 times): 1.42; Increase or decrease ([3]; freezing and thawing 10 times vs 2 times): Increase; Rate of increase or decrease ([4]; after 4 hours): 0.52
4 | O=c1[nH]cnc2nc[nH]c12 [Hypoxanthine] | – | – | – | – | – | Increase | Different from individual | 2.11 | Rate of increase or decrease (second value, decrease) [4, 6]: 0.70; Rate of increase or decrease (first value, increase) [4, 7]: 3.84
